Patent US6180803A, “19-nor-pregnene derivatives and pharmaceuticals containing such derivatives” (priority 1996, dated 2001)

What was measured:
[1] = system: uterus of estrogen-primed immature female rabbits (endometrial transformation); settings: in words, known from the literature; cited from earlier work
[2] = system: ventral prostate and seminal vesicle of immature castrated male rats; assay: Residual androgenic activity in the immature castrated male rat model; format: in vivo; settings: for Seminal Vesicle weight / Ventral Prostate weight: 10 daily administrations; for effect on the growth of male accessory sex organs (residual androgenic activity): in words, gavage (PO), Tables 3 and 4
Text: The residual androgenic potential is an important feature to be evaluated for any new progestin, because it is highly predictive of androgenic side-effects in women. One pharmacological model of androgenic activity has been standardized to screen steroids or related compounds in immature castrated male rats, using the hypertrophy of the vental prostate and of the seminal vesicle as the endpoint, following 10 daily administrations (R. I. Dorfman, in Methods in Hormone Research, volume 2, London, Academic Press, 1962: 275-313; A. G. Hilgar and D. J. Hummel, Androgenic and Myogenic Endocrine Bioassay Data, U.S. Department of Health, Education and Welfare, Washington D.C., 1964).

[3] = system: human T47-D cell progesterone receptor; assay: Relative binding affinity to human T47-D cell progesterone receptor ([3H]-ORG 2058 displacement); settings: for IC50: mean ± s.e.m., 2 nM [3H]-ORG 2058, 3 hours at 4° C., T47-D cell PR, read-out: ED50 (concentration inhibiting 50% of the specific binding of [3H]-ORG 2058); for RBA (relative binding affinity): relative to nomegestrol acetate = 100%
Experimental: (§1) The progestational activity of the compounds according to the present invention can be assessed mainly in two specific experimental models the affinity for the progesterone receptor (PR) in vitro, and the endometrial tranformation of the rabbit uterus in vivo. Human PRs are readily available in high amounts from the T47-D cell line in culture (M. B. Mockus et al., Endocrinology, 1982, 110, 1564-1571). Relative binding affinities (RBA) for the human T47-D cell PR are determined as previously described (J. Botella et al., J. Steroid Biochem. Molec. Biol., 1994, 50, 41-47) using [^3 H]-ORG 2058 as a labelled specific ligand (G. Fleischmann and M. Beato, Biochim. Biophys. Acta, 1978, 540, 500-517) and nomegestrol acetate as a non-radioactive reference progestin. Competitive incubations were performed against 2 nM of [^3 H]-ORG 2058 for 3 hours at 4° C. with […] of non-labelled steroid, chosen between 4 and 256 nM following a 1/2^n dilution scheme. Displacement curves were fitted for each experiment, and the concentration inhibiting 50% of the specific binding of [^3 H]-ORG 2058 was calculated for each curve (IC50).

[4] = system: uterus of estrogen-primed immature female rabbits (endometrial transformation); assay: Clauberg-McPhail test by oral administration (gavage), endometrial transformation of the rabbit uterus; format: in vivo; settings: for ED50 (dose for mean McPhail grade equal to 2): mean ± s.e.m., total dose/rabbit/5 days; for Relative activity: relative to nomegestrol acetate = 100%
Experimental: as §1
One specific pharmacological test has been standardized in vivo for the detection and quantitation of pseudogestagenic activity since the mid-30's: it is based on the property of the uterus of estrogen-primed immature female rabbits to respond to very slight amounts of progestin by a typical endometrial transformation into a densely packed and interlaced epithelial network called "dentelle". The original test schedule, which includes 6 days of estrogen priming (total subcutaneous dose of 30 μg/rabbit of oestradiol benzoate) followed by 5 days of progestational treatment, was designed as early as 1930 by C. Clauberg, Zentr. Gynakol. 1930, 54, 2757-2770. The semi-quantitative scale used to grade the intensity of the microscopical appearance of the dentelle was set up by M. K. McPhail, J. Physiol (London), 1934, 83, 145-156. This overall Clauberg-McPhail procedure has been extensively used to screen steroids for putative progestational activity in vivo and is still part of the basic hormonal profile of any new progestin such as norgestimate (A Phillips et al., Contraception, 1987, 36, 181-192), or desogestrel (J. Van der Vies and J. De Visser, Arzneim. Forsch/Drug Res., 1983, 33, 231-236). The progestational potency is inversely related to the dose needed to induce a half-maximal stimulation of the dentelle, i.e. to record a mean McPhail grade equal to 2. This ED50 is deduced from the dose-responsecurve and expressed in total dose/rabbit/5 days. All compounds were tested only following oral administration by gavage, in suspension in a carboxy-methylcellulose solution.

[5] = system: ventral prostate and seminal vesicle of immature castrated male rats; settings: well-known from the literature (Tausk and de Visser); cited from earlier work
[6] = Table 4, PO, 20 mg/animal/day, mean ± s.e.m. of 7 or 8 animals, castrated controls 10.4 ± 0.6, both ns
[7] = Table 4, PO, 20 mg/animal/day, mean ± s.e.m. of 7 or 8 animals, castrated controls 11.8 ± 0.6, cyproterone acetate p <0.05, Example 4 ns
[8] = Table 3, PO, 20 mg/animal/day, mean ± s.e.m. of 8 animals, castrated controls 12.0 ± 0.9, medroxyprogesterone acetate p <0.001, Example 1 ns
[9] = Table 3, PO, 20 mg/animal/day, mean ± s.e.m. of 8 animals, castrated controls 12.3 ± 0.7, medroxyprogesterone acetate p <0.01, Example 1 ns

SMILES	effect on the growth of male accessory sex organs (residual androgenic activity) [2]	IC50 [3] [nM]	RBA (relative binding affinity) [3] [%]	ED50 (dose for mean McPhail grade equal to 2) [4] [μg/rabbit 5 days]	Relative activity [4] [%]	other results
CC(=O)O[C@]1(C(C)=O)CC[C@H]2[C@@H]3C=C(Cl)C4=CC(=O)[C@@H]5C[C@@H]5[C@]4(C)[C@H]3CC[C@@]21C [Cyproterone acetate]	very weak and limited to the ventral prostate, at the border of statistical significance	–	–	–	–	progestational activity [1]: potent progestational activity; Seminal Vesicle weight [2, 6]: 11.3 ± 0.6 mg; Ventral Prostate weight [2, 7]: 15.3 ± 1.3 mg
CC(=O)O[C@]1(C(C)=O)CC[C@H]2[C@@H]3CC(C)(C)C4=CC(=O)CC[C@@H]4[C@H]3CC[C@@]21C [Example 1, 17α-acetoxy-6,6-dimethyl-3,20-dioxo-19-nor-pregna-4-ene]	totally inactive	27.8 ± 2	32	152 ± 28	112	Ventral Prostate weight [2, 8]: 13.0 ± 0.3 mg; Seminal Vesicle weight [2, 9]: 10.4 ± 0.5 mg
CC(=O)O[C@]1(C(C)=O)CC[C@H]2[C@@H]3C[C@H](C)C4=CC(=O)[C@@H]5C[C@@H]5[C@@H]4[C@H]3CC[C@@]21C [Example 4, 17α-acetoxy-1α,2α-methylene-6α-methyl-3,20-dioxo-19-nor-pregna-4-ene]	totally inactive	22.8 ± 1.7	39	66 ± 11	258	Seminal Vesicle weight [2, 6]: 11.2 ± 0.5 mg; Ventral Prostate weight [2, 7]: 12.1 ± 0.4 mg
CC(=O)O[C@]1(C(C)=O)CC[C@H]2[C@@H]3C[C@H](C)C4=CC(=O)[C@H]5C[C@H]5[C@@H]4[C@H]3CC[C@@]21C [Example 5, 17α-acetoxy-1β,2β-methylene-6α-methyl-3,20-dioxo-19-nor-pregna-4-ene]	–	17.7 ± 2.4	50	> 750 ± 6.0	> 17	–
CC(=O)O[C@]1(C(C)=O)CC[C@H]2[C@@H]3C[C@H](C)C4=CC(=O)CC[C@]4(C)[C@H]3CC[C@@]21C [Medroxyprogesterone acetate]	caused both organs to more or less double in weight	–	–	–	–	androgenic properties [5]: weak androgenic properties; Ventral Prostate weight [2, 8]: 29.1 ± 1.4 mg; Seminal Vesicle weight [2, 9]: 19.9 ± 1.8 mg
CC(=O)O[C@]1(C(C)=O)CC[C@H]2[C@@H]3C=C(C)C4=CC(=O)CC[C@@H]4[C@H]3CC[C@@]21C [Nomegestrol acetate, reference compound]	–	8.9 ± 2	100	170 ± 41	100	progestational activity [1]: potent orally active
C[C@]12CC[C@H]3[C@@H](CCC4=CC(=O)CC[C@@]43C)[C@@H]1CC[C@@H]2O [Testosterone]	–	–	–	–	–	Ventral Prostate weight ([2]; Table 3, SC, 0.05 mg/animal/day, mean ± s.e.m. of 8 animals, castrated controls 12.0 ± 0.9, *** p <0.001): 90.4 ± 4.4 mg; Seminal Vesicle weight ([2]; Table 3, SC, 0.05 mg/animal/day, mean ± s.e.m. of 8 animals, castrated controls 12.3 ± 0.7, *** p <0.001): 90.3 ± 6.7 mg; Seminal Vesicle weight ([2]; Table 4, SC, 0.05 mg/animal/day, mean ± s.e.m. of 7 or 8 animals, castrated controls 10.4 ± 0.6, *** p <0.001): 79.0 ± 5.3 mg; Ventral Prostate weight ([2]; Table 4, SC, 0.05 mg/animal/day, mean ± s.e.m. of 7 or 8 animals, castrated controls 11.8 ± 0.6, *** p <0.001): 80.9 ± 3.4 mg
